Assay results published in patent US8975280B2, “Deoxynojirimycin and D-arabinitol analogs and methods of using” (The Chancellor, Masters and Scholars of The University of …, priority 2006, dated 2015).
Like-named read-outs stand apart in the source and are kept apart here.

What was measured:
α-glucosidase II = molecular target: T1, α-glucosidase II (Rattus norvegicus, UniProt A0A8I6GFL3); experiment: In vitro inhibition of purified α-glucosidase II, (a) and (b) activities, 2-AA-labeled FOS substrates, HPLC; assay type: biochemical
T1 construct: Purified α-glucosidase I and II were purified from rat liver by known methods; from tissue; host or cells: rat liver
T1 sequence (A0A8I6ADW9 1-525 partner): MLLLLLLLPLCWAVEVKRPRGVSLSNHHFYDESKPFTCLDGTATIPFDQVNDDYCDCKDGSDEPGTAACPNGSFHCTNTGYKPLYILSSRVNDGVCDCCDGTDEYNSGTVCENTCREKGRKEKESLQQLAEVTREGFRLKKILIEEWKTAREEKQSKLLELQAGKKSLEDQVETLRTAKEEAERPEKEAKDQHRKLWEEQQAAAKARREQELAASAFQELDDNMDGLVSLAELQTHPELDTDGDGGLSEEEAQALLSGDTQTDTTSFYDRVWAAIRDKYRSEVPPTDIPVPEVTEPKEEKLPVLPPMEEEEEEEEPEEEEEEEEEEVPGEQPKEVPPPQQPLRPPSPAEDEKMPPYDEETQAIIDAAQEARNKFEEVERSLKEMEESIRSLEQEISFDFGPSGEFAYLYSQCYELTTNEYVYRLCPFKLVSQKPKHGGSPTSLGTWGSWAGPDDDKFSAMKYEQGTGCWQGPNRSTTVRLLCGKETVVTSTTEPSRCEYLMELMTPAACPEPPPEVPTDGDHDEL
Procedure: All chromatography was performed at 30° C. The first solvent, solvent A, was acetonitrile and the second solvent, solvent B, was Milli-Q water. […] Samples (<50 μl) were injected in Milli-Q water/acetonitrile (3/7, v/v). All chromatography was controlled, including data collection and processing, using Waters Empower software. Glucose units were determined, following comparison with a 2-AA-labeled glucose oligomer ladder (derived from a partial hydrolysate of dextran) external standard using Peak Time software (developed in-house).
Purified α-glucosidase I and II were purified from rat liver by known methods. […] 2-AA-labeled FOS were isolated and purified as substrates for either α-glucosidase I or II. […] […] […] […] The reactions were stopped by the addition of 30 μl acetonitrile.

glucosidase I = molecular target: T2, glucosidase I (Homo sapiens, UniProt Q13724); experiment: Inhibition of glucosidase I in HL60 cells, free oligosaccharide (G3M5N) analysis by NP-HPLC; assay type: cell-based; parameters: concentration of maximal glucosidase I inhibition in cells: unit not given here; conditions: 24 h
T2 construct: endogenous in cells; host or cells: HL60 cells
T2 sequence (Q13724 1-837): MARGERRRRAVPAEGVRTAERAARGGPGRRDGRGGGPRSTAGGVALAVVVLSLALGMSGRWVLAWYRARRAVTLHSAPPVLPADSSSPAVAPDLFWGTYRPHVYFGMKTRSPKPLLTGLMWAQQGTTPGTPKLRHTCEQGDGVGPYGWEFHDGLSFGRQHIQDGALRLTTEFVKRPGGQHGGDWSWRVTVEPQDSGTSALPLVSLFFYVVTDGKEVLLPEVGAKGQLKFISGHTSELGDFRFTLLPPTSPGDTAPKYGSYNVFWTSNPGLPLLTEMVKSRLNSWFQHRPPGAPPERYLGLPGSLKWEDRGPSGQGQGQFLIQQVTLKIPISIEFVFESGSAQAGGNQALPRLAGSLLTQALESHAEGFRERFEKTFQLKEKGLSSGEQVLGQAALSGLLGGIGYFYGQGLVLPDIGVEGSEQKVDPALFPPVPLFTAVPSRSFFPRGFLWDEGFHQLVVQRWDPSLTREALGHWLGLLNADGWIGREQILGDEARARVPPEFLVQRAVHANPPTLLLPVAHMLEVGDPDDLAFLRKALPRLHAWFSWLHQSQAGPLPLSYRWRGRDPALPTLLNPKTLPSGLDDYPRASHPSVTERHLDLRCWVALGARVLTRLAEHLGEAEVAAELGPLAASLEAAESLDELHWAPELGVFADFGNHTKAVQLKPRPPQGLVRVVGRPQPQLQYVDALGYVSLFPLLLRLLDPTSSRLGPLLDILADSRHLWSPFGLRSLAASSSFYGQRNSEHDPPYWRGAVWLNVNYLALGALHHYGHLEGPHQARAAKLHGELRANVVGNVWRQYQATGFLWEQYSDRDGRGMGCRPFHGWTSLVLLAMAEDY
Procedure: The effect of an ER-glucosidase inhibitor on cells was evaluated using an assay method by modifying known methods. (H. R. Mellor et al., Cellular Effects of Deoxynojirimycin Analogues: Inhibition of N-Linked Oligosaccharide Processing and Generation of Free Glucosylated Oligosaccharides, 381 Biochem. J. 867-875 (2004). The detection of free oligosaccharides following imino sugar treatment to generate misfolded protein that is degraded in the cytosol is an accurate measure of cell ER entry and inhibition of glycoprotein processing of α-glucosidases I and II by imino sugars.
Cells were cultured to high density (×10^7 cells/ml) prior to growth in fresh medium containing NB-DNJ at varying concentrations. The cells were seeded at a lower density so as to achieve a high density at the end of the incubation period. […] The conditions for extraction of FOS were determined to maximize recovery of FOS. […]
ConA-Sepharose purified 2-AA-labeled oligosaccharides were separated by NP-HPLC using a 4.6×250 mm TSKgel Amide-80 column (Anachem, Luton, UK) with slight modifications to known methods. (D. C. Neville, et al.) The chromatography system consisted of a Waters Alliance 2695 separations module and an in-line Waters 474 fluorescence detector set at an excitation wavelength of 360 nm and emission wavelength of 425 nm. […]

[N-]=[N+]=Nc1ccc(NCCCCCCN2C[C@H](O)[C@@H](O)[C@H](O)[C@H]2CO)c([N+](=O)[O-])c1 [NAP-DNJ, N—(N′-{4′azido-2′-nitrophenyl)-6-aminohexyl)-deoxynojirimycin]
IC50 (α-glucosidase II; heptamannose substrate Glc1Man7GlcNAc1, read-out: α-Glucosidase II (b) Glc1Man7GlcNAc1 IC50): 19.2 ± 0.06 µM | IC50 (α-glucosidase II; heptamannose substrate Glc2Man7GlcNAc1, read-out: α-Glucosidase II (a) Glc2Man7GlcNAc1 IC50): 11.7 ± 0.7 µM | IC50 (α-glucosidase II; pentamannose substrate Glc1Man5GlcNAc1, read-out: α-Glucosidase II (b) Glc1Man5GlcNAc1 IC50): 0.833 ± 0.18 µM | IC50 (α-glucosidase II; pentamannose substrate Glc2Man5GlcNAc1, read-out: α-Glucosidase II (a) Glc2Man5GlcNAc1 IC50): 0.3 ± 0.1 µM | concentration of maximal glucosidase I inhibition in cells (glucosidase I; G3M5N): 50-100 ρM | more potent at inhibiting glucosidase I than NB-DNJ in cells (glucosidase I; estimation of G3M5N): 20-50 times
